Results taken from patent US5286648A, “A84575 antibiotics” (Eli Lilly and Company, priority 1991, dated 1994).

Key:
[1] = system: Fusobacterium necrophorum; experiment: Susceptibility of anaerobic bacterial isolates, agar dilution (Table 13); format: cell-based; conditions: 24 h
Peptococcus constellatus = experiment: Susceptibility of anaerobic cocci isolates, agar dilution (Table 16); format: cell-based; conditions: Streptococcus constellatus, 24 h
Fusobacterium symbiosum = experiment: Susceptibility of anaerobic bacterial isolates, agar dilution (Table 13); format: cell-based; conditions: 24 h
Staphylococcus aureus = experiment: In vitro activity vs. Staphylococcus aureus strains, agar dilution, Mueller-Hinton agar (Table 6); format: cell-based
Clostridium difficile = experiment: Susceptibility of anaerobic bacterial isolates, agar dilution (Table 13); format: cell-based; conditions: Clostridioides difficile; strain 2994; 24 hr; A84575: 3 different lots
From the text: (§1) *MIC Determined by the AgarDilution Method, Endpoints Read After 24Hr.

Peptococcus prevoti = experiment: as above; format: cell-based; conditions: strain 1281; 24 hr; A84575: 3 different lots
From the text: as §1

[2] = system: Bacteroides thetaiotaomicron; experiment: as above; format: cell-based; conditions: strain 1438, 24 hr, A84575: 3 different lots
From the text: as §1

Clostridium septicum = experiment: as above; format: cell-based; conditions: strain 1128, 24 hr, A84575: 3 different lots
From the text: as §1

Propionibacterium acnes = experiment: Susceptibility of Propionibacterium acnes isolates, agar dilution (Table 15); format: cell-based; conditions: Cutibacterium acnes, 24 h
[3] = system: Peptostreptococcus intermedius; experiment: Susceptibility of anaerobic bacterial isolates, agar dilution (Table 13); format: cell-based; conditions: 24 h
Streptococcus pneumoniae [4] = experiment: In vivo activity, administered subcutaneously to mice (Table 17); conditions: sc, subcutaneous, LD challenge 587
Streptococcus pneumoniae [5] = experiment: In vitro activity vs. Streptococcus pneumoniae strains, agar dilution, Mueller-Hinton agar (Table 10)
Peptococcus variabilis = experiment: Susceptibility of anaerobic cocci isolates, agar dilution (Table 16); format: cell-based; conditions: 24 h
[6] = system: Streptococcus sp. (Group D); experiment: In vitro activity vs. Streptococcus sp. (Group D) strains, agar dilution, Mueller-Hinton agar (Table 8); format: cell-based

CN[C@H](CC(C)C)C(=O)N[C@H]1C(=O)N[C@@H](CC(N)=O)C(=O)N[C@H]2C(=O)N[C@H]3C(=O)N[C@H](C(=O)N[C@H](C(=O)O)c4cc(O)cc(O)c4-c4cc3ccc4O)[C@H](O)c3ccc(c(Cl)c3)Oc3cc2cc(c3O[C@@H]2O[C@H](CO)[C@@H](O)[C@H](O)[C@H]2O[C@H]2C[C@](C)(N)[C@H](O)[C@H](C)O2)Oc2ccc(cc2Cl)[C@H]1O [Vancomycin]
2 µg/mL: MIC (Staphylococcus aureus; strain 25923) | MIC (Clostridium difficile) | MIC (Clostridium septicum) | MIC (Propionibacterium acnes; strain #5176, A84575: 3 different lots) | MIC ([6]; strain 9901) | MIC ([6]; strain M13) | MIC ([6]; strain Shrigley) | MIC ([6]; strain Vietnam)
16 µg/mL: MIC [2]
0.25 µg/mL: MIC (Propionibacterium acnes; strain #103, A84575: 3 different lots) | MIC (Propionibacterium acnes; strain #105, A84575: 3 different lots) | MIC (Propionibacterium acnes; strain #107, A84575: 3 different lots) | MIC (Propionibacterium acnes; strain #5170, A84575: 3 different lots) | MIC (Propionibacterium acnes; strain #5227, A84575: 3 different lots) | MIC (Propionibacterium acnes; strain #5228, A84575: 3 different lots) | MIC (Propionibacterium acnes; strain #5229, A84575: 3 different lots) | MIC (Propionibacterium acnes; strain #5246, A84575: 3 different lots) | MIC (Streptococcus pneumoniae [5]; strain 97P) | MIC (Streptococcus pneumoniae [5]; strain 2764) | MIC (Streptococcus pneumoniae [5]; strain BI343) | MIC (Streptococcus pneumoniae [5]; strain BI348) | MIC (Streptococcus pneumoniae [5]; strain BI180351) | MIC (Streptococcus pneumoniae [5]; strain HZ-4-2) | MIC (Streptococcus pneumoniae [5]; strain M11-1-H10) | MIC (Streptococcus pneumoniae [5]; strain M11-Z-Al)
1.58 mg/kg: ED50 (Streptococcus pneumoniae [4])
0.125 µg/mL: MIC (Peptococcus variabilis)
4 µg/mL: MIC (Peptococcus prevoti) | MIC (Streptococcus pneumoniae [5]; ATCC6301, strain ATCC 6301) | MIC (Streptococcus pneumoniae [5]; strain BI374) | MIC ([6]; strain 9933 Beta) | MIC ([6]; strain 9960) | MIC ([6]; strain 22521) | MIC ([6]; strain M10) | MIC ([6]; strain M12) | MIC ([6]; strain M21) | MIC ([6]; strain M28) | MIC ([6]; strain M36) | MIC ([6]; strain Van Almen)
0.5 µg/mL: MIC (Staphylococcus aureus; strain 3110) | MIC (Staphylococcus aureus; strain 3131, methicillin-resistant) | MIC (Staphylococcus aureus; strain #43, methicillin-resistant) | MIC (Staphylococcus aureus; strain CVT#6, methicillin-resistant) | MIC (Staphylococcus aureus; strain DUTT, methicillin-resistant) | MIC (Staphylococcus aureus; strain H535) | MIC (Staphylococcus aureus; strain ID-VI #1, methicillin-resistant) | MIC (Staphylococcus aureus; strain Seattle 973, methicillin-resistant) | MIC (Staphylococcus aureus; strain V92) | MIC (Propionibacterium acnes; strain #44, A84575: 3 different lots) | MIC (Propionibacterium acnes; strain #104, A84575: 3 different lots) | MIC (Propionibacterium acnes; strain #106, A84575: 3 different lots) | MIC (Propionibacterium acnes; strain #5187, A84575: 3 different lots) | MIC (Propionibacterium acnes; strain #5191, A84575: 3 different lots) | MIC (Propionibacterium acnes; strain #5197, A84575: 3 different lots) | MIC (Propionibacterium acnes; strain #5226, A84575: 3 different lots) | MIC (Propionibacterium acnes; strain #5260, A84575: 3 different lots) | MIC (Propionibacterium acnes; strain #5292, A84575: 3 different lots) | MIC (Propionibacterium acnes; strain #8586A, A84575: 3 different lots) | MIC (Streptococcus pneumoniae [5]; strain BI5) | MIC (Streptococcus pneumoniae [5]; strain BI508) | MIC (Streptococcus pneumoniae [5]; strain BI-492) | MIC (Streptococcus pneumoniae [5]; strain M11-1-H7) | MIC (Streptococcus pneumoniae [5]; strain Park I)
1 µg/mL: MIC [1] | MIC (Peptococcus constellatus) | MIC (Fusobacterium symbiosum) | MIC (Staphylococcus aureus; strain 3055) | MIC (Staphylococcus aureus; strain 3109) | MIC (Staphylococcus aureus; strain 3123) | MIC (Staphylococcus aureus; strain 3128) | MIC (Staphylococcus aureus; strain 3136) | MIC (Staphylococcus aureus; strain 3484A, methicillin-resistant) | MIC (Staphylococcus aureus; strain BGB #10, methicillin-resistant) | MIC (Staphylococcus aureus; strain H290) | MIC [3] | MIC ([6]; strain 282) | MIC ([6]; strain 8043) | MIC ([6]; strain 9913) | MIC ([6]; strain 12253F) | MIC ([6]; strain M11) | MIC ([6]; strain M20) | MIC ([6]; strain M38)
